Counter-ions that a name gives are not always drawn.
Legend:
Format in all cases: biochemical
PIM-1 = PIM-1 (Homo sapiens, UniProt P11309); assay: Enzyme PIM-1 Assay ([33P]ATP incorporation into PIM2tide, filter plate); conditions: averaged IC50; 35 μM ATP, 7.5 μM PIM2tide, 0.25 nM PIM-1, 60 min at 22° C.
Procedure, shortened: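 Ten-point, 3-fold dilution series (10 μM top, 2% DMSO final) tested for inhibition of 33P transfer from 35 μM ATP to 7.5 μM PIM2tide by 0.25 nM PIM-1. Reaction 60 min, 22 °C, pH 7.4 MOPS/MgCl2 buffer; phosphocellulose capture, scintillation counting, IC50 where fitted POC equals 50.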

[1] = target: T1, GST-tagged recombinant full-length human Pim-2 (Homo sapiens, UniProt Q9P1W9); assay: PIM-2 Assay (as Example A); conditions: averaged IC50; 4 μM ATP, 1.0 μM PIM2tide, 1.5 nM Pim-2
T1 construct: GST-tagged recombinant full-length human Pim-2; GST
Procedure, shortened: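 IC50 was derived by 4-parameter logistic fitting of percent-of-control data over a 10-point, 3-fold series (highest 10 μM, 2% DMSO). Reactions held 1.5 nM GST-Pim-2 (full-length, human), 4 μM [γ-33P]ATP and 1.0 μM PIM2tide for 60 min at 22 °C, pH 7.4; 33P-peptide captured on P81 filters.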

recombinant rat PIM-3 = recombinant rat PIM-3 (Rattus norvegicus, UniProt O70444); assay: PIM-3 Assay (as Example A); conditions: averaged IC50; 30 μM ATP, 3.75 μM PIM2tide, 0.5 nM PIM-3
Procedure, shortened: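 33P incorporation from 30 μM [γ-33P]ATP into 3.75 μM PIM2tide by 0.5 nM rat PIM-3, 60 min at 22 °C in pH 7.4 MOPS buffer, read by P81 filter capture and scintillation counting. Compounds tested in 3-fold dilutions up to 10 μM final, 2% DMSO; percent-of-control data fitted by 4-parameter logistic for IC50.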

PIM-1, sequence (P11309 whole entry, species assumed): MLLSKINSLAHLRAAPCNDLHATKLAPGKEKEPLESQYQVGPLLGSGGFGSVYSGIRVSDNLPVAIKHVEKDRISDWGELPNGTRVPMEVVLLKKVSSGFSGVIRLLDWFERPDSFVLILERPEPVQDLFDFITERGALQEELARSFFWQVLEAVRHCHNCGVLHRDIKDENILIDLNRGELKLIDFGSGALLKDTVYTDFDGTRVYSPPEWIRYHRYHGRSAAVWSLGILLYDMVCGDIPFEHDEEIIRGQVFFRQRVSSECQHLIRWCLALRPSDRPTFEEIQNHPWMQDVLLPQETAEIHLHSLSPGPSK
T1 sequence (Q9P1W9 whole entry): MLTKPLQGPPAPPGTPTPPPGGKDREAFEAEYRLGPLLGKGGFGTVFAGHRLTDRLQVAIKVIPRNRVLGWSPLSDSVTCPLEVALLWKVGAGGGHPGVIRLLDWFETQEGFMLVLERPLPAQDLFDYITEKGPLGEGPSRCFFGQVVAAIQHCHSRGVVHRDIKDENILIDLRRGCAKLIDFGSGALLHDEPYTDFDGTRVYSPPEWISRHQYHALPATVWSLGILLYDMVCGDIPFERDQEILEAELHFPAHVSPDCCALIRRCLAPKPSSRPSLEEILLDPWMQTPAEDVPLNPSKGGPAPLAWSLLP

| Compound | IC50 (PIM-1) [nM] | IC50 [1] [nM] | IC50 (recombinant rat PIM-3) [nM] |
| --- | --- | --- | --- |
| Cc1c(-c2cnn(C)c2)ccc2ccc(-c3nnc4ccc([C@@H](N5CC[C@H](N)C5)C(F)(F)F)cn34)nc12 [Example 191, (S)-1-((R)-2,2,2-trifluoro-1-(3-(8-methyl-7-(1-methyl-1H-pyrazol-4-yl)quinolin-2-yl)-[1,2,4]triazolo[4,3-a]pyridin-6-yl)ethyl)pyrrolidin-3-amine dihydrochloride] | 0.2 | 74 | 0.2 |
| FC(F)(F)[C@@H](c1ccc2nnc(-c3ccc4cccc(OCC5CC5)c4n3)n2c1)N1C[C@@H]2C[C@H]1CN2 [Example 67, 2-(6-((R)-1-((1S,4S)-2,5-diazabicyclo[2.2.1]heptan-2-yl)-2,2,2-trifluoroethyl)-[1,2,4]triazolo[4,3-a]pyridin-3-yl)-8-(cyclopropylmethoxy)quinoline dihydrochloride] | 1.63 | 63 | 3.2 |
| COC[C@H](C)Oc1cccc2ccc(-c3nnc4ccc([C@@H](N5CC[C@H](N)C5)C(F)(F)F)cn34)nc12 [Example 141, (S)-1-((R)-2,2,2-trifluoro-1-(3-(8-((S)-1-methoxypropan-2-yloxy)quinolin-2-yl)-[1,2,4]triazolo[4,3-a]pyridin-6-yl)ethyl)pyrrolidin-3-amine dihydrochloride] | 0.2 | 90 | 0.9 |
| N[C@@H]1CCN(C(c2ccc3nnc(-c4ccc5cccc(OCC6CC6)c5n4)n3c2)C(F)(F)F)C1 (stereo partly drawn) [Example 16, (3R)-1-(1-(3-(8-(cyclopropylmethoxy)quinolin-2-yl)-[1,2,4]triazolo[4,3-a]pyridin-6-yl)-2,2,2-trifluoroethyl)pyrrolidin-3-amine dihydrochloride] | 0.28 | 140 | 6 |
| COc1cc2nc(-c3nnc4ccc([C@@H](N5CC(F)[C@H](N)C5)C(F)(F)F)cn34)ccc2cc1F (stereo partly drawn) [Example 162, (3R)-4-fluoro-1-((R)-2,2,2-trifluoro-1-(3-(6-fluoro-7-methoxyquinolin-2-yl)-[1,2,4]triazolo[4,3-a]pyridin-6-yl)ethyl)pyrrolidin-3-amine dihydrochloride] | 1.24 | > 100 | 35 |
| FC(F)(F)C(c1ccc2nnc(-c3ccc4cccc(OCC5CC5)c4n3)n2c1)N1C[C@H]2C[C@@H]1CN2 (stereo partly drawn) [Example 25, 2-(6-(1-((1R,4R)-2,5-diazabicyclo[2.2.1]heptan-2-yl)-2,2,2-trifluoroethyl)-[1,2,4]triazolo[4,3-a]pyridin-3-yl)-8-(cyclopropylmethoxy)quinoline dihydrochloride] | 0.8 | 86 | 5.1 |
| CO[C@H](C)COc1cc(-c2nnc3ccc([C@@H](N4CC[C@H](N)C4)C(F)(F)F)cn23)nc2ccccc12 [Example 291, (S)-1-((R)-2,2,2-trifluoro-1-(3-(4-((R)-2-methoxypropoxy)quinolin-2-yl)-[1,2,4]triazolo[4,3-a]pyridin-6-yl)ethyl)pyrrolidin-3-amine formate] | 0.19 | 82 | 0.5 |
| CC(C)C(=O)Nc1ccc2ccc(-c3nnc4ccc([C@@H](N5CC[C@H](N)C5)C(F)(F)F)cn34)nc2c1 [Example 70, N-(2-(6-((R)-1-((S)-3-aminopyrrolidin-1-yl)-2,2,2-trifluoroethyl)-[1,2,4]triazolo[4,3-a]pyridin-3-yl)quinolin-7-yl)isobutyramide] | 0.18 | > 100 | 0.3 |
| CC(C)Oc1cc(F)cc2ccc(-c3nnc4ccc([C@@H](N5C[C@@H](N)[C@@H](O)C5)C(F)(F)F)cn34)nc12 [Example 132, (3S,4R)-4-amino-1-((R)-2,2,2-trifluoro-1-(3-(6-fluoro-8-isopropoxyquinolin-2-yl)-[1,2,4]triazolo[4,3-a]pyridin-6-yl)ethyl)pyrrolidin-3-ol dihydrochloride] | 4.42 | 538 | 16 |
| N[C@H]1CCN([C@H](c2ccc3nnc(-c4ccc5cc(F)cc(C6CC6)c5n4)n3c2)C(F)(F)F)C1 [Example 177, (S)-1-((R)-1-(3-(8-cyclopropyl-6-fluoroquinolin-2-yl)-[1,2,4]triazolo[4,3-a]pyridin-6-yl)-2,2,2-trifluoroethyl)pyrrolidin-3-amine dihydrochloride] | 0.31 | > 100 | 1.7 |
| COC[C@@H](C)Oc1cc2nc(-c3nnc4ccc([C@@H](N5CC[C@H](N)C5)C(F)(F)F)cn34)ccc2cc1F [Example 160, (S)-1-((R)-2,2,2-trifluoro-1-(3-(6-fluoro-7-((R)-1-methoxypropan-2-yloxy)quinolin-2-yl)-[1,2,4]triazolo[4,3-a]pyridin-6-yl)ethyl)pyrrolidin-3-amine dihydrochloride] | 0.16 | 46 | 0.4 |
| N[C@@H]1CCN([C@H](c2ccc3nnc(-c4ccc5cccc(OCC6CC6)c5n4)n3c2)C(F)(F)F)C1 (single isomer, unassigned) [Example 22] | 0.25 | 145 | 2.9 |
| CN[C@H]1CCN(C(c2ccc3nnc(-c4ccc5cccc(OCC6CC6)c5n4)n3c2)C(F)(F)F)C1 (stereo partly drawn) [Example 20, (3S)-1-(1-(3-(8-(Cyclopropylmethoxy)quinolin-2-yl)-[1,2,4]triazolo[4,3-a]pyridin-6-yl)-2,2,2-trifluoroethyl)-N-methylpyrrolidin-3-amine dihydrochloride] | 0.35 | 131 | 3.3 |
| COc1cccc2ccc(-c3nnc4ccc([C@@H](N5CCC(C)(O)C5)C(F)(F)F)cn34)nc12 (single isomer, unassigned; diastereomer 1) [Example 193, hydrochloride] | 13 | > 1000 | 67 |
| CC(C)Oc1cc(F)cc2ccc(-c3nnc4ccc([C@H](N5CC[C@](C)(N)C5)C(F)(F)F)cn34)nc12 [Example 216, (S)-3-methyl-1-((S)-2,2,2-trifluoro-1-(3-(6-fluoro-8-isopropoxyquinolin-2-yl)-[1,2,4]triazolo[4,3-a]pyridin-6-yl)ethyl)pyrrolidin-3-amine dihydrochloride] | 0.38 | 56 | 0.8 |

Continued, values first:

| IC50 (PIM-1) [nM] | IC50 [1] [nM] | IC50 (recombinant rat PIM-3) [nM] | Compound |
| --- | --- | --- | --- |
| 0.34 | 194 | 0.4 | C[C@]1(N)CCN([C@@H](c2ccc3nnc(-c4ccc5ccc(CCO)cc5n4)n3c2)C(F)(F)F)C1 [Example 317, 2-(2-(6-((S)-1-((S)-3-amino-3-methylpyrrolidin-1-yl)-2,2,2-trifluoroethyl)-[1,2,4]triazolo[4,3-a]pyridin-3-yl)quinolin-7-yl)ethanol] |
| 0.35 | 350 | 0.7 | N[C@H]1CCN([C@H](c2ccc3nnc(-c4ccc5ccc(SCCO)cc5n4)n3c2)C(F)(F)F)C1 [Example 267, 2-(2-(6-((R)-1-((S)-3-aminopyrrolidin-1-yl)-2,2,2-trifluoroethyl)-[1,2,4]triazolo[4,3-a]pyridin-3-yl)quinolin-7-ylthio)ethanol hydrochloride] |
| 1.68 | 1820 | 6.1 | Cc1oc(=O)oc1COC(=O)N[C@H]1CCN([C@H](c2ccc3nnc(-c4ccc5cc(F)c(OCCO)cc5n4)n3c2)C(F)(F)F)C1 [Example 321, (5-methyl-2-oxo-1,3-dioxol-4-yl)methyl ((S)-1-((R)-2,2,2-trifluoro-1-(3-(6-fluoro-7-(2-hydroxyethoxy)quinolin-2-yl)-[1,2,4]triazolo[4,3-a]pyridin-6-yl)ethyl)pyrrolidin-3-yl)carbamate] |
| 0.2 | 376 | 0.7 | COCCCOc1ccc2ccc(-c3nnc4ccc([C@@H](N5CC[C@H](N)C5)C(F)(F)F)cn34)nc2c1 [Example 275, (S)-1-((R)-2,2,2-trifluoro-1-(3-(7-(3-methoxypropoxy)quinolin-2-yl)-[1,2,4]triazolo[4,3-a]pyridin-6-yl)ethyl)pyrrolidin-3-amine dihydrochloride] |
| 0.12 | 54 | 0.3 | CC(C)(O)COc1cc(F)cc2ccc(-c3nnc4ccc([C@@H](N5CC[C@H](N)C5)C(F)(F)F)cn34)nc12 [Example 259, 1-(2-(6-((R)-1-((S)-3-aminopyrrolidin-1-yl)-2,2,2-trifluoroethyl)-[1,2,4]triazolo[4,3-a]pyridin-3-yl)-6-fluoroquinolin-8-yloxy)-2-methylpropan-2-ol formate] |
| 1.08 | 675 | 2.4 | CC(C)(O)Cc1cc2nc(-c3nnc4ccc([C@@H](N5CC[C@H](N)C5)C(F)(F)F)cn34)ccc2cc1F [Example 236, dihydrochloride] |
| 2.37 | > 1000 | 18 | COc1cccc2ccc(-c3nnc4ccc([C@@H](N5CC[C@@](C)(N)C5)C(F)(F)F)cn34)nc12 [Example 240, (R)-3-methyl-1-((R)-2,2,2-trifluoro-1-(3-(8-methoxyquinolin-2-yl)-[1,2,4]triazolo[4,3-a]pyridin-6-yl)ethyl)pyrrolidin-3-amine dihydrochloride] |

— patent US8889704B2 (Array BioPharma Inc., priority 2011, dated 2014)
